The numbers were not newly measured in patent US20240374528A1, “[…] DOSAGE FORMS COMPRISING DEUTETRABENAZINE” (AUSPEX PHARMACEUTICALS, INC., priority 2021, published 2024), which cites them from elsewhere.

The structures appear in SMILES notation.

The conditions of this data set: relative to tetrabenazine; U.S. Pat. No. 8,524,733.

As to `[2H]C([2H])([2H])Oc1cc2c(cc1OC([2H])([2H])[2H])[C@H]1CC(=O)[C@H](CC(C)C)CN1CC2` [Deutetrabenazine, (RR,SS)-1,3,4,6,7,11b-hexahydro-9,10-di(methoxy-D3)-3-(2-methylpropyl)-2H-benzo[a]quinolizin-2-one], the “half-life of active metabolites” value is “increased half-life of its active metabolites”.
